Columns and labels:
[1] = system: velvetleaf; assay: Test B pre/postemergence velvetleaf; assay type: in vivo, Abutilon theophrasti; details: for Velvetleaf plant response rating: scale of 0 to 10 where 0 is no effect and 10 is complete control
Procedure, shortened: (§1)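 Test chemicals in a non-phytotoxic solvent mixture with surfactant were sprayed preemergence onto planted seeds and postemergence onto plants 2 to 18 cm tall (1- to 4-leaf stage). After twelve to sixteen days in a greenhouse, injury was visually rated against untreated controls from 0 (no effect) to 10 (complete control).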

[2] = system: surinam grass; assay: Test B pre/postemergence surinam grass; assay type: in vivo, Brachiaria decumbens; details: for B. signalgrass plant response rating: scale of 0 to 10 where 0 is no effect and 10 is complete control
Procedure, shortened: as §1

[3] = system: bedstraw; assay: Test B pre/postemergence bedstraw; assay type: in vivo, Galium aparine; details: Postemergence
Procedure, shortened: as §1

[4] = system: corn; assay: Test B pre/postemergence corn; assay type: in vivo, Zea mays; details: for Corn plant response rating: scale of 0 to 10 where 0 is no effect and 10 is complete control
Procedure, shortened: as §1

[5] = system: crabgrass; assay: Test B pre/postemergence crabgrass; assay type: in vivo, Digitaria sanguinalis; details: for Crabgrass plant response rating: scale of 0 to 10 where 0 is no effect and 10 is complete control
Procedure, shortened: as §1

[6] = system: wild oat; assay: Test B pre/postemergence wild oat; assay type: in vivo, Avena fatua; details: for Wild oats plant response rating: scale of 0 to 10 where 0 is no effect and 10 is complete control
Procedure, shortened: as §1

[7] = system: rape; assay: Test B pre/postemergence rape; assay type: in vivo, Brassica napus; details: for Rape plant response rating: scale of 0 to 10 where 0 is no effect and 10 is complete control
Procedure, shortened: as §1

[8] = system: blackgrass; assay: Test B pre/postemergence blackgrass; assay type: in vivo, Alopecurus myosuroides; details: for Blackgrass plant response rating: scale of 0 to 10 where 0 is no effect and 10 is complete control
Procedure, shortened: as §1

[9] = system: morningglory; assay: Test B pre/postemergence morningglory; assay type: in vivo, Ipomoea hederacea; details: for Morningglory plant response rating: scale of 0 to 10 where 0 is no effect and 10 is complete control
Procedure, shortened: as §1

[10] = system: giant foxtail; assay: Test B pre/postemergence giant foxtail; assay type: in vivo, Setaria faberii; details: for Giant foxtail plant response rating: scale of 0 to 10 where 0 is no effect and 10 is complete control
Procedure, shortened: as §1

[11] = system: cocklebur; assay: Test B pre/postemergence cocklebur; assay type: in vivo, Xanthium strumarium; details: for Cocklebur plant response rating: scale of 0 to 10 where 0 is no effect and 10 is complete control
Procedure, shortened: as §1

[12] = system: pigweed; assay: Test B pre/postemergence pigweed; assay type: in vivo, Amaranthus retroflexus; details: for Redroot pigweed plant response rating: scale of 0 to 10 where 0 is no effect and 10 is complete control
Procedure, shortened: as §1

[13] = system: rice; assay: Test B flood test rice; assay type: in vivo, Oryza sativa
Procedure, shortened: (§2)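 Each value is a visual injury score relative to controls, with 10 meaning complete control and 0 no effect. Evaluation took place twelve to sixteen days after the 2-leaf-stage plants were treated and kept in the greenhouse.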

[14] = system: bamyardgrass; assay: Test B flood test barnyardgrass; assay type: in vivo, Echinochloa crus-galli
Procedure, shortened: as §2

[15] = system: sugar beet; assay: Test B pre/postemergence sugar beet; assay type: in vivo, Beta vulgaris; details: for Sugarbeets plant response rating: scale of 0 to 10 where 0 is no effect and 10 is complete control
Procedure, shortened: as §1

[16] = system: smallflower flatsedge; assay: Test B flood test smallflower flatsedge; assay type: in vivo, Cyperus difformis
Procedure, shortened: as §2

[17] = Postemergence, Rate 125 g/ha, scale 0 to 10, 0 is no effect, 10 is complete control
[18] = Postemergence, Rate 250 g/ha, scale 0 to 10, 0 is no effect, 10 is complete control
[19] = Preemergence, Rate 62 g/ha, scale 0 to 10 (0 no effect, 10 complete control)
[20] = Rate 500 g/ha, Postemergence, scale 0 to 10, 0 no effect, 10 complete control
[21] = Rate 62 g/ha, flood test species, Pre-emergence, visual evaluation after twelve to sixteen days
[22] = Rate 125 g/ha, under heading Pre-emergence, flood test species, visual evaluation after twelve to sixteen days
[23] = Rate 250 g/ha, Pre-emergence, flood-test species, scale 0 to 10, 0 is no effect, 10 is complete control
[24] = Rate 500 g/ha, Pre-emergence, flood test species, scale 0 to 10 (0 no effect, 10 complete control)

CC(C)N(C(=O)n1oc(=O)n(N2CCOCC2)c1=O)c1ccc(F)cc1F [Compound 384]
Plant response rating, Velvetleaf [1, 17]: 0
Plant response rating, Velvetleaf [1, 18]: 0
Plant response rating, Velvetleaf [1, 19]: 0
Velvetleaf plant response rating (0 to 10 scale) ([1]; Preemergence, Rate 125 g/ha): 0
Velvetleaf plant response rating ([1]; Preemergence, Rate 250 g/ha): 1
Velvetleaf plant response rating ([1]; Preemergence, Rate 500 g/ha): 3
Velvetleaf plant response rating ([1]; Rate 62 g/ha, Postemergence): 0
Plant response rating, Velvetleaf [1, 20]: 0
Plant response rating, B. signalgrass [2, 17]: 3
Plant response rating, B. signalgrass [2, 18]: 6
Plant response rating, B. signalgrass [2, 19]: 0
B. signalgrass plant response rating (0 to 10 scale, 0 is no effect, 10 is complete control) ([2]; Preemergence, Rate 125 g/ha): 0
B. signalgrass plant response rating ([2]; Preemergence, Rate 250 g/ha): 3
B. signalgrass plant response rating ([2]; Preemergence, Rate 500 g/ha): 7
B. signalgrass plant response rating ([2]; Rate 62 g/ha, Postemergence): 0
Plant response rating, B. signalgrass [2, 20]: 7
Plant response rating, Bedstraw ([3]; Rate 125 g/ha, scale 0 to 10, 0 is no effect, 10 is complete control): 0
Plant response rating, Bedstraw ([3]; Rate 250 g/ha, scale 0 to 10, 0 is no effect, 10 is complete control): 0
Bedstraw plant response rating ([3]; Rate 62 g/ha, scale of 0 to 10 where 0 is no effect and 10 is complete control): 0
Plant response rating, Bedstraw ([3]; Rate 500 g/ha, scale 0 to 10, 0 no effect, 10 complete control): 0
Plant response rating, Corn [4, 17]: 0
Plant response rating, Corn [4, 18]: 0
Plant response rating, Corn [4, 19]: 0
Corn plant response rating ([4]; Preemergence, Rate 500 g/ha): 5
Corn plant response rating ([4]; Rate 62 g/ha, Postemergence): 0
Plant response rating, Corn [4, 20]: 0
Plant response rating, Crabgrass [5, 17]: 7
Plant response rating, Crabgrass [5, 18]: 8
Plant response rating, Crabgrass [5, 19]: 6
Crabgrass plant response rating (0 to 10 scale) ([5]; Preemergence, Rate 125 g/ha): 6
Crabgrass plant response rating ([5]; Preemergence, Rate 250 g/ha): 9
Crabgrass plant response rating ([5]; Preemergence, Rate 500 g/ha): 9
Crabgrass plant response rating ([5]; Rate 62 g/ha, Postemergence): 1
Plant response rating, Crabgrass [5, 20]: 8
Plant response rating, Wild oats [6, 17]: 0
Plant response rating, Wild oats [6, 18]: 0
Plant response rating, Wild oats [6, 19]: 0
Wild oats plant response rating (0 to 10 scale) ([6]; Preemergence, Rate 125 g/ha): 0
Wild oats plant response rating ([6]; Preemergence, Rate 250 g/ha): 6
Wild oats plant response rating ([6]; Preemergence, Rate 500 g/ha): 6
Wild oats plant response rating ([6]; Rate 62 g/ha, Postemergence): 0
Plant response rating, Wild oats [6, 20]: 4
Plant response rating, Rape [7, 17]: 0
Plant response rating, Rape [7, 18]: 0
Plant response rating, Rape [7, 19]: 0
Rape plant response rating (0 to 10 scale) ([7]; Preemergence, Rate 125 g/ha): 0
Rape plant response rating ([7]; Preemergence, Rate 250 g/ha): 0
Rape plant response rating ([7]; Preemergence, Rate 500 g/ha): 0
Rape plant response rating ([7]; Rate 62 g/ha, Postemergence): 0
Plant response rating, Blackgrass [8, 17]: 4
Plant response rating, Blackgrass [8, 18]: 9
Plant response rating, Blackgrass [8, 19]: 0
Blackgrass plant response rating (0 to 10 scale) ([8]; Preemergence, Rate 125 g/ha): 0
Blackgrass plant response rating ([8]; Preemergence, Rate 250 g/ha): 3
Blackgrass plant response rating ([8]; Preemergence, Rate 500 g/ha): 7
Blackgrass plant response rating ([8]; Rate 62 g/ha, Postemergence): 3
Plant response rating, Morningglory [9, 17]: 0
Plant response rating, Morningglory [9, 18]: 0
Plant response rating, Morningglory [9, 19]: 0
Morningglory plant response rating (0 to 10 scale) ([9]; Preemergence, Rate 125 g/ha): 0
Morningglory plant response rating ([9]; Preemergence, Rate 250 g/ha): 0
Morningglory plant response rating ([9]; Preemergence, Rate 500 g/ha): 2
Morningglory plant response rating ([9]; Rate 62 g/ha, Postemergence): 0
Plant response rating, Morningglory [9, 20]: 0
Plant response rating, Giant foxtail [10, 17]: 8
Plant response rating, Giant foxtail [10, 18]: 9
Plant response rating, Giant foxtail [10, 19]: 9
Giant foxtail plant response rating (0 to 10 scale) ([10]; Preemergence, Rate 125 g/ha): 10
Giant foxtail plant response rating ([10]; Preemergence, Rate 250 g/ha): 10
Giant foxtail plant response rating ([10]; Preemergence, Rate 500 g/ha): 10
Giant foxtail plant response rating ([10]; Rate 62 g/ha, Postemergence): 4
Plant response rating, Giant foxtail [10, 20]: 9
Plant response rating, Cocklebur [11, 17]: 0
Plant response rating, Cocklebur [11, 18]: 0
Plant response rating, Cocklebur [11, 19]: 0
Cocklebur plant response rating (0 to 10 scale) ([11]; Preemergence, Rate 125 g/ha): 0
Cocklebur plant response rating ([11]; Preemergence, Rate 250 g/ha): 0
Cocklebur plant response rating ([11]; Preemergence, Rate 500 g/ha): 0
Cocklebur plant response rating ([11]; Rate 62 g/ha, Postemergence): 0
Plant response rating, Cocklebur [11, 20]: 0
Plant response rating, Redroot pigweed [12, 17]: 0
Plant response rating, Redroot pigweed [12, 18]: 0
Plant response rating, Redroot pigweed [12, 19]: 0
Redroot pigweed plant response rating (0 to 10 scale) ([12]; Preemergence, Rate 125 g/ha): 0
Redroot pigweed plant response rating ([12]; Preemergence, Rate 250 g/ha): 0
Redroot pigweed plant response rating ([12]; Preemergence, Rate 500 g/ha): 0
Redroot pigweed plant response rating ([12]; Rate 62 g/ha, Postemergence): 0
Plant response rating, Redroot pigweed [12, 20]: 0
Plant response rating, Rice (0 to 10 scale, 0 is no effect, 10 is complete control) [13, 21]: 0
Rice plant response rating (0 to 10 scale, 0 is no effect, 10 is complete control) [13, 22]: 0
Rice plant response rating [13, 23]: 0
Rice plant response rating [13, 24]: 0
Plant response rating, Barnyardgrass (0 to 10 scale, 0 is no effect, 10 is complete control) [14, 21]: 0
Barnyardgrass plant response rating (0 to 10 scale, 0 is no effect, 10 is complete control) [14, 22]: 0
Barnyardgrass plant response rating [14, 23]: 0
Barnyardgrass plant response rating [14, 24]: 0
Plant response rating, Sugarbeets [15, 17]: 0
Plant response rating, Sugarbeets [15, 18]: 0
Plant response rating, Sugarbeets [15, 19]: 0
Sugarbeets plant response rating (0 to 10 scale) ([15]; Preemergence, Rate 125 g/ha): 0
Sugarbeets plant response rating ([15]; Preemergence, Rate 250 g/ha): 0
Sugarbeets plant response rating ([15]; Preemergence, Rate 500 g/ha): 2
Sugarbeets plant response rating ([15]; Rate 62 g/ha, Postemergence): 0
Plant response rating, Sugarbeets [15, 20]: 0
Plant response rating, S. Flatsedge (0 to 10 scale, 0 is no effect, 10 is complete control) [16, 21]: 0
S. Flatsedge plant response rating (0 to 10 scale, 0 is no effect, 10 is complete control) [16, 22]: 0
S. Flatsedge plant response rating [16, 23]: 0
S. Flatsedge plant response rating [16, 24]: 0
